# From the supplement of paper PMC6045584
# ± gives the standard deviation of the averaged measurements.
# What was measured:
# XAV-939 = compound: Oc1nc(-c2ccc(C(F)(F)F)cc2)nc2c1CSCC2 [XAV-939]; assay: surviving fraction relative to DMSO-only wells; higher = less growth inhibition; details: exposure time: 5 days
# Procedure, shortened: (§1)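 Viability was determined by CellTiter-Glo luminescence, expressed as surviving fraction normalised to the median of DMSO-only wells. The cells were log-phase tumour cell lines seeded at 250–500 per well in 384-well plates and, after 24 hours, exposed continuously for five days to inhibitors at 0.5, 1, 5, 10, 50, 100, 500 and 1000 nM. Three screens per line were run, keeping only lines with replicate Pearson r >0.7 and median Z' >0.3.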
# SOTRASTAURIN/AEB071 = compound: CN1CCN(c2nc(C3=C(c4c[nH]c5ccccc45)C(=O)NC3=O)c3ccccc3n2)CC1 [SOTRASTAURIN/AEB071]; assay: as above; details: exposure time: 5 days
# Procedure, shortened: as §1
Test System,surviving fraction (XAV-939; 0.5 nM),surviving fraction (XAV-939; 1 nM),surviving fraction (XAV-939; 5 nM),surviving fraction (XAV-939; 10 nM),surviving fraction (XAV-939; 50 nM),surviving fraction (XAV-939; 100 nM),surviving fraction (XAV-939; 500 nM),surviving fraction (XAV-939; 1000 nM),surviving fraction (SOTRASTAURIN/AEB071; 0.5 nM),surviving fraction (SOTRASTAURIN/AEB071; 1 nM),surviving fraction (SOTRASTAURIN/AEB071; 5 nM),surviving fraction (SOTRASTAURIN/AEB071; 10 nM),surviving fraction (SOTRASTAURIN/AEB071; 50 nM),surviving fraction (SOTRASTAURIN/AEB071; 100 nM),surviving fraction (SOTRASTAURIN/AEB071; 500 nM),surviving fraction (SOTRASTAURIN/AEB071; 1000 nM)
CHLA90 AUTONOMIC GANGLIA,1.01 ± 0.071,1.04 ± 0.051,0.989 ± 0.031,0.997 ± 0.045,0.975 ± 0.019,0.948 ± 0.067,0.987 ± 0.072,0.933 ± 0.022,0.975 ± 0.024,0.962 ± 0.046,1.02 ± 0.074,0.943 ± 0.081,1.05 ± 0.12,1 ± 0.083,1.06 ± 0.097,0.978 ± 0.17
HCC1954 BREAST,0.826 ± 0.073,1.02 ± 0.041,1.15 ± 0.24,1.06 ± 0.042,1.111 ± 0.0085,0.967 ± 0.088,0.637 ± 0.0081,0.723 ± 0.057,1.1 ± 0.09,1.1 ± 0.08,1.2 ± 0.11,1.19 ± 0.27,0.63 ± 0.2,0.682 ± 0.12,0.502 ± 0.072,0.674 ± 0.16
SUM149.B1*.S BREAST,0.968 ± 0.033,1.07 ± 0.059,1.04 ± 0.047,1.06 ± 0.082,0.996 ± 0.045,1.06 ± 0.033,1.01 ± 0.03,1 ± 0.026,1.11 ± 0.028,1.08 ± 0.06,1.06 ± 0.093,1.07 ± 0.061,1.11 ± 0.059,1.04 ± 0.024,1.04 ± 0.1,1.03 ± 0.042
T47D BREAST,1.04 ± 0.074,1.08 ± 0.045,1.07 ± 0.02,1.09 ± 0.014,1.09 ± 0.044,1.13 ± 0.053,1.04 ± 0.052,1.05 ± 0.042,1.03 ± 0.05,1.042 ± 0.0044,0.988 ± 0.034,1.03 ± 0.038,1.03 ± 0.05,1.05 ± 0.014,1.1 ± 0.028,1.09 ± 0.022
SUM159 BREAST,1.17 ± 0.32,1.15 ± 0.19,1.14 ± 0.21,1.16 ± 0.22,1.12 ± 0.2,1.13 ± 0.18,1.09 ± 0.16,1.08 ± 0.11,1.1 ± 0.02,1.12 ± 0.028,1.11 ± 0.016,1.08 ± 0.026,1.06 ± 0.021,1.09 ± 0.015,1.07 ± 0.028,1.04 ± 0.021
CADOES1 SOFT TISSUE,0.957 ± 0.1,0.993 ± 0.092,0.816 ± 0.0092,0.903 ± 0.049,0.857 ± 0.13,0.899 ± 0.094,0.922 ± 0.076,0.913 ± 0.091,1.04 ± 0.11,0.908 ± 0.11,1 ± 0.18,0.926 ± 0.1,0.923 ± 0.019,0.973 ± 0.14,1.04 ± 0.055,0.962 ± 0.18
SG32 HEADNECK,0.996 ± 0.26,1.02 ± 0.092,1.66 ± 1.1,1.13 ± 0.1,1.02 ± 0.12,1.08 ± 0.13,0.721 ± 0.17,0.603 ± 0.034,0.943 ± 0.088,1.13 ± 0.18,1.09 ± 0.22,1.05 ± 0.057,0.792 ± 0.084,0.698 ± 0.27,0.827 ± 0.13,0.795 ± 0.08
BT20 BREAST,1.08 ± 0.19,1.06 ± 0.043,1.05 ± 0.079,1.05 ± 0.051,1.08 ± 0.14,1.14 ± 0.05,1.26 ± 0.057,1.23 ± 0.1,1.12 ± 0.043,1.14 ± 0.11,1.19 ± 0.052,1.15 ± 0.024,0.836 ± 0.013,0.893 ± 0.15,0.912 ± 0.029,0.972 ± 0.055
OSHN BONE,1.02 ± 0.013,1.07 ± 0.047,1.07 ± 0.037,1.05 ± 0.038,1.05 ± 0.015,1.09 ± 0.031,1.07 ± 0.038,1.11 ± 0.035,1.01 ± 0.049,0.989 ± 0.042,1.03 ± 0.044,1.02 ± 0.026,1.03 ± 0.021,0.979 ± 0.01,1 ± 0.0049,0.998 ± 0.014
C33A CERVIX,0.909 ± 0.039,0.973 ± 0.1,0.981 ± 0.032,1.03 ± 0.068,0.913 ± 0.068,0.901 ± 0.048,0.835 ± 0.062,0.755 ± 0.04,0.938 ± 0.17,1.05 ± 0.059,1.14 ± 0.045,1.05 ± 0.12,1.19 ± 0.071,1.16 ± 0.13,1.14 ± 0.077,1.2 ± 0.086
